Target: T1, ENaC (Epithelial Sodium Channel) (Mus musculus, UniProt Q61180+Q9WU38+Q9WU39)
T1 construct: Mouse kidney M-1 cells were cultivated in DMEM containing 5% FCS and 5 μM dexamethasone; endogenous in cells; host or cells: Mouse kidney M-1 cells
T1 sequence (Q61180 1-699): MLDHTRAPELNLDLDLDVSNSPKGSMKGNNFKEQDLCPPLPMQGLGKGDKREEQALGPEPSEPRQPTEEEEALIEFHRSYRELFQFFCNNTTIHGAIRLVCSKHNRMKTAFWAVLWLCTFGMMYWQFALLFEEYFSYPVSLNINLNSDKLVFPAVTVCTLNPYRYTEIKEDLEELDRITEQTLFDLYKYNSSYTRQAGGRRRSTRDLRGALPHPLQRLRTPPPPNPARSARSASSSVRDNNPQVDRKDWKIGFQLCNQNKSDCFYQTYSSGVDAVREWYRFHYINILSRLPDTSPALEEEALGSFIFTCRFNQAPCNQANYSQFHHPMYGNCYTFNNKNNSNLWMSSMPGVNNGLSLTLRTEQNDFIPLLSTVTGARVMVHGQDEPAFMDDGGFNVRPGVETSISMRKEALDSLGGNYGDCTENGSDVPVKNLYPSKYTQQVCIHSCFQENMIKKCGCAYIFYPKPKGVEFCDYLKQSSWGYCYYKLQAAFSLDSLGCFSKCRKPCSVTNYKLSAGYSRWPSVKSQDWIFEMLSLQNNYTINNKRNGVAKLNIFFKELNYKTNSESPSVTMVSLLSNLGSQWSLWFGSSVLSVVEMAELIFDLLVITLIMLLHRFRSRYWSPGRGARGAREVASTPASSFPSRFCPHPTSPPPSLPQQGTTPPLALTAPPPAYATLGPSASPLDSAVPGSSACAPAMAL
T1 sequence (Q9WU38 1-638): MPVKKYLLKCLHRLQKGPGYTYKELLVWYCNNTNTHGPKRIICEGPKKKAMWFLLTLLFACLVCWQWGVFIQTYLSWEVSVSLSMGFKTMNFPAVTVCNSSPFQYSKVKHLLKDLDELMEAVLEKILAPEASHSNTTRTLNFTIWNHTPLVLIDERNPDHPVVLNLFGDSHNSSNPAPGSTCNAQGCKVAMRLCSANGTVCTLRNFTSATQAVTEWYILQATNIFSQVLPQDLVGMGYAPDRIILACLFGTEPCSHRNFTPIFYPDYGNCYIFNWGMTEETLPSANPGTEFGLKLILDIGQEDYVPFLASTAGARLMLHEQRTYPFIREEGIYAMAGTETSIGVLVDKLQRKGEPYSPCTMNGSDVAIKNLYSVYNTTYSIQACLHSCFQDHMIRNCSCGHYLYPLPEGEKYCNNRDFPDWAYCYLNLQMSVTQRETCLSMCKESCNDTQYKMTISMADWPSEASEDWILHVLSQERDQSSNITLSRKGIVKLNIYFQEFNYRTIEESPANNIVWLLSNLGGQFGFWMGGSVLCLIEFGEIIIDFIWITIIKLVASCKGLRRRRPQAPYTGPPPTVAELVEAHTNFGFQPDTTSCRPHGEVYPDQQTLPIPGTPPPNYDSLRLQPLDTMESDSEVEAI
T1 sequence (Q9WU39 1-655): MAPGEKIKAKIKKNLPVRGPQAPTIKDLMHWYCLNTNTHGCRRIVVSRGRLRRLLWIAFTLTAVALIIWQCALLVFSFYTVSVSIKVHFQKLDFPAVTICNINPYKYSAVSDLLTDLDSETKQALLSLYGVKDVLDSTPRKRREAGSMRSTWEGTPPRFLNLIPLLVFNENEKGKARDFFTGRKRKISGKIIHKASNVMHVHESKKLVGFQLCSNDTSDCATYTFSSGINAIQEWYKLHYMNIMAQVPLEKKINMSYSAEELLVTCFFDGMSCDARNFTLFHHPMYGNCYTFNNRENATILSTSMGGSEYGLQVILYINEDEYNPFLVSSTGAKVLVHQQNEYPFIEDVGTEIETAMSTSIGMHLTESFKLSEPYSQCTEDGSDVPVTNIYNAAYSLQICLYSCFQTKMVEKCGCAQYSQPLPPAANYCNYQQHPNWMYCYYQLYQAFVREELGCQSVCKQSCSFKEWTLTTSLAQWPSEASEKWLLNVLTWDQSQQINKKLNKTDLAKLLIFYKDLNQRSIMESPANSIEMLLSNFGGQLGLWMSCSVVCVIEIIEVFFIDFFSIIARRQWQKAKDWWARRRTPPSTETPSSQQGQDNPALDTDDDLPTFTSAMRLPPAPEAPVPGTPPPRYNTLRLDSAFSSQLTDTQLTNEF
Assay: Ussing Chamber assay (short circuit current, amiloride sensitive I_SC) in M-1 cells
Type: cell-based
Settings: Mouse kidney M-1 cells, apical application, 37° C.
Method: The IC50 values of the example compounds given above were determined in the Ussing Chamber assay.
Ussing Chamber: Mouse kidney M-1 cells were cultivated in DMEM containing 5% FCS and 5 μM dexamethasone for 10 to 12 days on polyester transwell filters. Filters were inserted into a teflon-coated well-plate which fit into the ussing chamber system. Prior to measurement the medium of M-1 cells was replaced with Caco-2 transport buffer (Invitrogen, Germany). During measurements, the Ussing chamber temperature was kept at 37° C. Short circuit currents (I_sc) were measured in the voltage-clamp mode with the software package Lab View for data acquisition and analysis. The transepithelial electrical resistance (TEER) was determined by the application of voltage steps of ±5 mV every 5 sec. Compounds were administered at a final concentration of 3 μM or at increasing concentrations (1-3-10 μM) to the apical solution. At the end of each experiment the amiloride sensitive I_SC was measured by adding 3 μM amiloride to the apical compartment. Results are expressed as inhibition in percent of the amiloride effect or as IC50.

| IC50 [nM] | Compound |
| --- | --- |
| 38 | CCNC(=O)c1cc2c(cc1OCC(=O)O)n(CC)c(CNC(=O)c1nc(Cl)c(N)nc1N)[n+]2CC [Example 7.01] |
| 29 | CCn1c(CNC(=O)c2nc(Cl)c(N)nc2N)[n+](CC)c2cc(C(=O)NC3CCNCC3)c(OCC(=O)O)cc21 [Example 7.02] |
| 6 | CC[n+]1c(CNC(=O)c2nc(Cl)c(N)nc2N)n(C[C@H](C)O)c2cc(N(C)C)c(C(=O)N3CCNCC3)cc21 [Example 8.01] |
| 1 | CCOc1cc2c(cc1C(=O)N1CCNCC1)[n+](CC)c(CNC(=O)c1nc(Cl)c(N)nc1N)n2CC [Example 8.02] |
| 8 | CCCCCOc1cc2c(cc1C(=O)N1CCNCC1)[n+](CC)c(CNC(=O)c1nc(Cl)c(N)nc1N)n2C[C@H](C)O [Example 8.03] |
| 9 | CCn1c(CNC(=O)c2nc(Cl)c(N)nc2N)[n+](CC)c2cc(C(=O)NC3CCN(C(=O)OC(C)(C)C)CC3)c(OCC(=O)O)cc21 [Example 9.01] |

The remaining lines, values behind:

| Compound | IC50 [nM] |
| --- | --- |
| CCOc1cc2c(cc1C(=O)N1CCN(C(=O)c3cncc(O)c3)CC1)[n+](CC)c(CNC(=O)c1nc(Cl)c(N)nc1N)n2CC [Example 4.16] | 2 |
| CC[n+]1c(CNC(=O)c2nc(Cl)c(N)nc2N)n(C[C@H](C)O)c2cc(N(C)C)c(C(=O)N3CCN(C(=O)c4cncc(O)c4)CC3)cc21 [Example 4.17] | 23 |
| CCCCCOc1cc2c(cc1C(=O)N1CCN(C(=O)c3cncc(O)c3)CC1)[n+](CC)c(CNC(=O)c1nc(Cl)c(N)nc1N)n2C[C@H](C)O [Example 4.18] | 19 |
| CCn1c(CNC(=O)c2nc(Cl)c(N)nc2N)[n+](CC)c2cc(C(=O)O)c(N3CCOCC3)cc21 [Example 6.01] | 14 |
| CCNC(=O)COc1cc2c(cc1C(=O)NC1CCNCC1)[n+](CC)c(CNC(=O)c1nc(Cl)c(N)nc1N)n2CC [Example 6.03] | 8 |
| CCn1c(CNC(=O)c2nc(Cl)c(N)nc2N)[n+](CC)c2ccc(OCCNC(=O)C3CCCN3)cc21 (stereo not shown) [Example 6.04] | 0.4 |
| CCn1c(CNC(=O)c2nc(Cl)c(N)nc2N)[n+](CC)c2ccc(OCCNC(=O)CN3CCC(N)CC3)cc21 [Example 6.05] | 1 |
| CCn1c(CNC(=O)c2nc(Cl)c(N)nc2N)[n+](CC)c2cc(C(=O)NC3CCNCC3)c(F)cc21 [Example 6.06] | 0.4 |
| CCn1c(CNC(=O)c2nc(Cl)c(N)nc2N)[n+](CC)c2ccc(OCCNC(=O)[C@H](C)N)cc21 [Example 6.07] | 0.4 |
| CCNC(=O)c1cc2c(cc1OCC(=O)NC1CCNCC1)n(CC)c(CNC(=O)c1nc(Cl)c(N)nc1N)[n+]2CC [Example 6.08] | 1 |

From US10155749B2, “Substituted benzimidazolium compounds useful in the treatment of respiratory diseases” (Boehringer Ingelheim International GmbH, priority 2015, dated 2018)
